Test results published in PMC12372887, “Mechanism and cellular actions of the potent AMPK inhibitor BAY-3827” (Science Advances, 2025).

What was measured:
[1] = biological target: T1, ULK1 (Homo sapiens, UniProt O75385); experiment: Cell-free ULK1 kinase assay (S108tide); assay type: biochemical; settings: increasing concentrations, 0 to 1 μM
T1 sequence (O75385 1-1050): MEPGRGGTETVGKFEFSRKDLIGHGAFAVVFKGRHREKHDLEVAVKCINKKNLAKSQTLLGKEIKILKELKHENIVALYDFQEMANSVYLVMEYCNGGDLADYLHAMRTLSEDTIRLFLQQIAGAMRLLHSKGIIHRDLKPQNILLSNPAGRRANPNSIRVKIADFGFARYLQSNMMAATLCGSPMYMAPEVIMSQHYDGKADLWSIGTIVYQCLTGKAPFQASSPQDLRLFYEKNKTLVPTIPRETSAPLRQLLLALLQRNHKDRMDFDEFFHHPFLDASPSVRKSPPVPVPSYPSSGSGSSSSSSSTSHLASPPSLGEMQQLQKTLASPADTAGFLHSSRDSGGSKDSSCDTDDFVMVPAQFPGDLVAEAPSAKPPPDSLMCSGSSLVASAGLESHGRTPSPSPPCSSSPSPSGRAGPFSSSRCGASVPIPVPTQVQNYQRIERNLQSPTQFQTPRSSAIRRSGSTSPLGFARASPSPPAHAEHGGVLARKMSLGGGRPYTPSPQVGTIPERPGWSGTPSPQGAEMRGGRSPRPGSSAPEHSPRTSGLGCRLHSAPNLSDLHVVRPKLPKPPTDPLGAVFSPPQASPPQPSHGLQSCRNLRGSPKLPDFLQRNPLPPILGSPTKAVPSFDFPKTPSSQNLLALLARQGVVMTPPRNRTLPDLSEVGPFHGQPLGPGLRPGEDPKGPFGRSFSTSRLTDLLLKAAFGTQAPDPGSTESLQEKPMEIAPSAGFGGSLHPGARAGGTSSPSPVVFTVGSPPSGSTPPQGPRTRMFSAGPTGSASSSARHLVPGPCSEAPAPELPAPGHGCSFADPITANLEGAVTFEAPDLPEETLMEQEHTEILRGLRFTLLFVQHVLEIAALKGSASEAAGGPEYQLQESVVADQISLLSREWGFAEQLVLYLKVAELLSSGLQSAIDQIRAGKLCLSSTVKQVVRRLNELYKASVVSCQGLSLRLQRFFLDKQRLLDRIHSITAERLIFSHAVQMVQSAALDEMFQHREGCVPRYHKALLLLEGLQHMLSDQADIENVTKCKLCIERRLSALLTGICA
Procedure: Heterotrimeric human AMPK FLAG- α1β1γ1, FLAG- α2β1γ1, and FLAG- α2β2γ1, as well as human FLAG-CaMKK2 and FLAG-ULK1, were produced in mammalian HEK293 cells as described ([66], [67]). For AMPK expression, the cells were triply transfected at 60% confluency using FuGene HD (Roche Applied Science) and 1 μg of pcDNA3 plasmid expression constructs for AMPK Flag-α1, β1-Myc, β2-Myc, and HA-γ1. For CaMKK2 expression, the cells were transfected with 1 μg of pcDNA3 Flag-CaMKK2 plasmid. For ULK1 expression, the cells were transfected with […] of pcDNA3 FLAG-ULK1 plasmid. After 48 hours, the transfected cells were harvested by rinsing with ice-cold PBS, followed by rapid lysis using 500 μl of lysis buffer. AMPK, CaMKK2, and ULK1 kinase activities were determined by phosphorylation of synthetic peptide substrates: SAMS (HMRSAMSGLHLVKRR), CaMKKtide ([…]), and S108tide. (KLPLTRSHNNFVARRR), respectively. Briefly, recombinant AMPK, CaMKK2, or ULK1 were immunoprecipitated from 10 μg of transfected cultured cell lysate using 10 μl of anti-FLAG M2 agarose beads [50% (v/v)] […] Radioactivity was quantified by liquid scintillation counting. […]

[2] = system: pThr172-AMPKα in U2OS cells; experiment: HTRF assay of Thr172-AMPKα phosphorylation in U2OS cells; assay type: cell-based, human; settings: for AMPK phosphorylation (pThr172): dose response; for EC50: Homo sapiens, U2OS
Procedure: (§1) Human osteosarcoma U2OS WT cells were obtained from John Rouse (MRC Protein Phosphorylation and Ubiquitylation Unit, University of Dundee) and were cultured in DMEM high glucose + GlutaMAX Supplement, pyruvate (Thermo Fisher Scientific, catalog no. 31966-021) containing penicillin G (100 U/ml), streptomycin (100 μg/ml), and 10% (v/v) FBS seeding with 50,000 cells per well in a 50-μl volume in culture 96-well cell culture plates (Corning Incorporated costar, #3599). The next day, the media were changed to 50 μl of serum-free media, and 50 μl of serum-free media containing BAY-3827 or BAY-974 was dispensed and left to incubate at 37°C for 30 min. […] HTRF assays using either phospho-Ser^79-ACC1 kit (Revvity, #64ACCPEG) or phospho-Thr^172-AMPK kit (Revvity, #64AMPKPEG) were performed in triplicate in HTRF 96-well low volume white plates (Revvity, #66PL96001) following manufacturer’s instructions. Sealed plates incubated overnight in darkness conditions were scanned at room temperature in Multimode Plate Reader EnVision (PerkinElmer) machine following HTRF setup recommendations for EnVision (Revvity), equipped with a top mirror LANCE/DELFIA single mirror (#412), a UV2 (TRF) 320 excitation filter (#111), emission filter APC 665 (#205), and second emission filter Europium 615 (#203), with a 2000-μs cycle and 60-μs delay, with the number of flashes set to 100 as well as for the 2nd detector. Results were viewed in EnVision Manager software (version 1.13.3009.1401) where 665/615 ratios were calculated, and data were normalized to control condition as %. All assay ratios between control lysate signal/nonspecific signal were greater than 2 as expected of a successful assay following the manufacturer’s instructions. Data were visualized in GraphPad Prism v10.

[3] = system: pSer79-ACC1 in U2OS cells; experiment: HTRF assay of Ser79-ACC1 phosphorylation in U2OS cells; assay type: cell-based, human; settings: for IC50: Homo sapiens, U2OS
Procedure: as §1

[4] = system: mouse primary adipocytes; experiment: Glucose uptake of primary adipocytes; assay type: cell-based; settings: varying doses

SMILES	inhibitory effect on kinase activity [1]	AMPK phosphorylation (pThr172) [2]	inhibition of ACC1 phosphorylation ([3]; up to highest tested concentration of 100 μM)	basal and insulin-stimulated glucose uptake [4]	EC50 ([2]; + MK-8722 (10 μM)) [nM]	EC50 ([2]; without MK-8722) [nM]	IC50 ([3]; + MK-8722 (10 μM)) [nM]	IC50 ([3]; without MK-8722) [nM]
CC1=C(C#N)C(c2ccc3c(c2)c(NC(=O)c2ccccc2C)nn3C)C(C#N)=C(C)N1 [BAY-974, N-[5-(3,5-dicyano-2,6-dimethyl-1,4-dihydropyridin-4-yl)-1-methylindazol-3-yl]-2-methylbenzamide]	no inhibitory effect	not	No inhibition					
CCc1ccccc1C(=O)Nc1n[nH]c2c(C)c(F)c(C3C(C#N)=C(C)N(C)C(C)=C3C#N)cc12 [BAY-3827, N-[5-(3,5-dicyano-1,2,6-trimethyl-4H-pyridin-4-yl)-6-fluoro-7-methyl-1H-indazol-3-yl]-2-ethylbenzamide]	no inhibitory effect	dose-dependently increased		not significantly affected	570	1930	6360	930
